The target of the assay is T1, Gag-Pol polyprotein [489-587,G537V,H558K,V571A] (Human immunodeficiency virus, UniProt P12497, G537V/H558K/V571A).
T1 construct: 489-587
The assay can be described thus: Inhibiton Activity Assay. The protocol:
The inhibition activity against HIV-1 PR and three mutants (G48V, V82F, V82A)were done in 96 well microtiter plate and were assayed. Wells that showed 50% inhibition of the enzyme activity were selected and diluted to 10nM and screened again.

Each structure is given as a SMILES string. Several values for one entry are separate records, joined by “and”; a condition that tells them apart may be missing. Equal entries are not always repeated.

The term IC50 denotes the concentration that inhibits the measured activity by half. The Ki is a measure of affinity in units of concentration, obtained from inhibition or displacement. A higher Ki goes with lower affinity.

With `COc1ccc(S(=O)(=O)N(CC(C)C)C[C@@H](O)[C@H](Cc2ccccc2)n2cc(COC(=O)N[C@H]3c4ccccc4C[C@H]3O)nn2)cc1` [HIV-1 PR Inhibitor, compound 6], the IC50 was 0.006 µM and 0.019 µM and 0.039 µM and 0.046 µM.

Take `COc1ccc(S(=O)(=O)N(CC(C)C)C[C@@H](O)[C@H](Cc2ccccc2)n2cc(CNC(=O)c3ccc(CNC(=O)OC(C)(C)C)cc3)nn2)cc1` [HIV-1 PR Inhibitor, compound 8]: the IC50 was 0.013 µM and 0.024 µM and 0.017 µM and 0.052 µM; the Ki is 0.004 µM and 0.013 µM and 0.0097 µM and 0.03 µM.

Values taken from BindingDB's records for doi:10.1002/cbic.200300724 (The Scripps Research Institute, 2003).
